From PubChem BioAssay AID1963446 (Molecular Pharmacology Branch, DTP, NCI, 2024)

Test system: 993429-296-R-J1-PDC complex spheroid growth, percent test/control
Assay: Anticancer human tumor 993429-296-R-J1-PDC patient-derived uterine sarcoma cell line growth inhibition [Asc]
Settings: for IC50: curve of first compound; for viability, T/C: stronger effect = lower value
In short: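 Tumor cells were grown as complex spheroids with human endothelial cells (HUVEC) and human mesenchymal stem cells as stroma. Agents were tested alone and in combination, in half-log steps down from the clinical Cmax, or from 10 microM where Cmax was unknown.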

[1] = second compound 0.01 µM, first compound 0.0316 µM
[2] = second compound 0.01 µM, first compound 0.1 µM
[3] = second compound 0.01 µM, first compound 0.316 µM
[4] = second compound 0.01 µM, first compound 1 µM
[5] = second compound 0.01 µM, first compound 3.16 µM
[6] = second compound 0.01 µM, first compound 10 µM
[7] = second compound 0.0316 µM, first compound 0.0316 µM
[8] = second compound 0.0316 µM, first compound 0.1 µM
[9] = second compound 0.0316 µM, first compound 0.316 µM
[10] = second compound 0.0316 µM, first compound 1 µM
[11] = second compound 0.0316 µM, first compound 3.16 µM
[12] = second compound 0.0316 µM, first compound 10 µM
[13] = second compound 0.1 µM, first compound 0.0316 µM
[14] = second compound 0.1 µM, first compound 0.1 µM
[15] = second compound 0.1 µM, first compound 0.316 µM
[16] = second compound 0.1 µM, first compound 1 µM
[17] = second compound 0.1 µM, first compound 3.16 µM
[18] = second compound 0.1 µM, first compound 10 µM
[19] = second compound 0.316 µM, first compound 0.0316 µM
[20] = second compound 0.316 µM, first compound 0.1 µM
[21] = second compound 0.316 µM, first compound 0.316 µM
[22] = second compound 0.316 µM, first compound 1 µM
[23] = second compound 0.316 µM, first compound 3.16 µM
[24] = second compound 0.316 µM, first compound 10 µM
[25] = second compound 1 µM, first compound 0.0316 µM
[26] = second compound 1 µM, first compound 0.1 µM
[27] = second compound 1 µM, first compound 0.316 µM
[28] = second compound 1 µM, first compound 1 µM
[29] = second compound 1 µM, first compound 3.16 µM
[30] = second compound 1 µM, first compound 10 µM
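Further: spheroids exposed to compounds for seven days.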

| Structure (SMILES) | IC50 (second compound 0.01 µM) [µM] | IC50 (second compound 0.0316 µM) [µM] | IC50 (second compound 0.1 µM) [µM] | IC50 (second compound 0.316 µM) [µM] | IC50 (second compound 1 µM) [µM] | viability, T/C [1] [%] | viability, T/C [2] [%] | viability, T/C [3] [%] | viability, T/C [4] [%] | viability, T/C [5] [%] | viability, T/C [6] [%] | viability, T/C [7] [%] | viability, T/C [8] [%] | viability, T/C [9] [%] | viability, T/C [10] [%] | viability, T/C [11] [%] | viability, T/C [12] [%] | viability, T/C [13] [%] | viability, T/C [14] [%] | viability, T/C [15] [%] | further results |
| --- | --- | --- | --- | --- | --- | --- | --- | --- | --- | --- | --- | --- | --- | --- | --- | --- | --- | --- | --- | --- | --- |
| C#Cc1c(F)ccc2cc(O)cc(-c3ncc4c(N5CC6CCC(C5)N6)nc(OCC56CCCN5CC(F)C6)nc4c3F)c12 (stereo not given) + CNC(C)C(=O)NC1CN(S(=O)(=O)c2cccc(S(=O)(=O)N3CCC4CCC(C(=O)NC(c5ccccc5)c5ccccc5)N4C(=O)C(NC(=O)C(C)NC)C3)c2)CCC2CCC(C(=O)NC(c3ccccc3)c3ccccc3)N2C1=O | 4.7 | 4.62 | 2.63 | 3.31 | < 0.0316 | 71.7 | 67.2 | 69.5 | 57.3 | 64.3 | 25.6 | 58.8 | 66.6 | 56.5 | 67.4 | 60.5 | 28 | 61 | 62.1 | 67.1 | viability, T/C [16]: 61.7%; viability, T/C [17]: 47.7%; viability, T/C [18]: 28.4%; viability, T/C [19]: 45.2%; viability, T/C [20]: 55.8%; viability, T/C [21]: 43.3%; viability, T/C [22]: 48.8%; viability, T/C [23]: 64.7%; viability, T/C [24]: 16.3%; viability, T/C [25]: 49.9%; viability, T/C [26]: 50.2%; viability, T/C [27]: 39.5%; viability, T/C [28]: 58%; viability, T/C [29]: 50.2%; viability, T/C [30]: 25% |
| C=C(F)C(=O)N1CCN(c2nc(OCC3CCCN3C)nc3c2CCN(c2cccc4cccc(Cl)c24)C3)CC1CC#N (stereo not given) + CNC(C)C(=O)NC1CN(S(=O)(=O)c2cccc(S(=O)(=O)N3CCC4CCC(C(=O)NC(c5ccccc5)c5ccccc5)N4C(=O)C(NC(=O)C(C)NC)C3)c2)CCC2CCC(C(=O)NC(c3ccccc3)c3ccccc3)N2C1=O | 1.01 | 1.04 | 0.617 | < 0.0316 | 0.0559 | 54.2 | 59.8 | 57.6 | 50.4 | 7.74 | 0.13 | 59.9 | 58.6 | 55.4 | 51.7 | 5.7 | 0.12 | 51.4 | 54.7 | 54.8 | viability, T/C [16]: 47.4%; viability, T/C [17]: 7.4%; viability, T/C [18]: 0.12%; viability, T/C [19]: 45.9%; viability, T/C [20]: 52.4%; viability, T/C [21]: 40.3%; viability, T/C [22]: 45.4%; viability, T/C [23]: 7.07%; viability, T/C [24]: 0.12%; viability, T/C [25]: 57.8%; viability, T/C [26]: 37.8%; viability, T/C [27]: 37.6%; viability, T/C [28]: 34.2%; viability, T/C [29]: 3.13%; viability, T/C [30]: 0.2% |
